Assay results as given in ChEMBL document CHEMBL1201862, “PubChem BioAssay data set” (2004).
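Interpolation was linear, between the two tested concentrations surrounding the appropriate level; five concentrations were tested over 48 hours in 96-well plates. Here, GI50 denotes the concentration required for 50% inhibition of growth.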 Activity calls are given as the source filed them. Cut-off read from the data, not from the text of the source: active = GI50 up to about 1.1 µM and inactive = higher. Bridge positions count the residues as written; N and C are the ends. Peptide text beside a SMILES is read from it. * marks the point of attachment. Cbz = O=C(OCc1ccccc1)*

Experiments:
Test in all cases: growth of human tumour cells (NCI), 48 h
HCT-15 = tested on: HCT-15
NCI-H23 = tested on: NCI-H23
CAKI-1 = tested on: CAKI-1
Hs-578T = tested on: Hs-578T
SF-539 = tested on: SF-539
MDA-MB-435 = tested on: MDA-MB-435
NCI-H460 = tested on: NCI-H460
PC-3 = tested on: PC-3
K562 = tested on: K562
NCI-H226 = tested on: NCI-H226
SF-268 = tested on: SF-268
DU-145 = tested on: DU-145
RXF 393 = tested on: RXF 393
HOP-92 = tested on: HOP-92
UACC-62 = tested on: UACC-62
A549 = tested on: A549
SK-MEL-2 = tested on: SK-MEL-2
LOX IMVI = tested on: LOX IMVI
BT-549 = tested on: BT-549

Compound | GI50 (HCT-15) | GI50 (NCI-H23) | GI50 (CAKI-1) | GI50 (Hs-578T) | GI50 (SF-539) | GI50 (MDA-MB-435) | GI50 (NCI-H460) | GI50 (PC-3) | GI50 (K562) | GI50 (NCI-H226) | GI50 (SF-268) | GI50 (DU-145) | GI50 (RXF 393) | GI50 (HOP-92) | GI50 (UACC-62) | GI50 (A549) | GI50 (SK-MEL-2) | GI50 (LOX IMVI) | GI50 (BT-549)
CCN(CCCl)c1cccc(NC(=O)c2ccc(C(=O)Nc3cccc(CN(C)C)c3)cc2)c1 | 0.605 µM | 0.0935 µM (active) | 0.302 µM (active) | 0.0618 µM (active) | 0.244 µM (active) | 0.0243 µM (active) | 0.0537 µM (active) | 0.044 µM (active) | 0.0422 µM (active) | 0.219 µM (active) | 0.0379 µM (active) | 0.0432 µM (active) | < 0.01 µM (active) | 0.144 µM (active) | 0.0785 µM (active) | 0.211 µM (active) | 0.0301 µM (active) | 0.0277 µM (active) | –
O=C1CC(c2cccc(Br)c2)n2cccc21 (stereo unspecified) | 92.9 µM | 63.5 µM (inactive) | 44.6 µM (inactive) | 28.2 µM (inactive) | > 100 µM (inactive) | > 100 µM (inactive) | – | 39.5 µM (inactive) | 72.3 µM (inactive) | 92.9 µM (inactive) | 67.8 µM (inactive) | > 100 µM (inactive) | > 100 µM (inactive) | 81.3 µM (inactive) | > 100 µM (inactive) | 62.1 µM (inactive) | 29 µM (inactive) | > 100 µM (inactive) | –
CCOC(=O)Cn1c2ccc(Br)cc2c2nc3ccccc3nc21 | – | > 100 µM (inactive) | > 100 µM (inactive) | 93.3 µM (inactive) | – | > 100 µM (inactive) | – | > 100 µM (inactive) | > 100 µM (inactive) | > 100 µM (inactive) | > 100 µM (inactive) | > 100 µM (inactive) | > 100 µM (inactive) | > 100 µM (inactive) | > 100 µM (inactive) | > 100 µM (inactive) | > 100 µM (inactive) | > 100 µM (inactive) | –
O=C(O)c1ccccc1/C=C1/Nc2ccccc2C1=O | 41.5 µM | > 100 µM (inactive) | > 100 µM (inactive) | 62.5 µM (inactive) | 92.9 µM (inactive) | > 100 µM (inactive) | 32.9 µM (inactive) | > 100 µM (inactive) | > 100 µM (inactive) | > 100 µM (inactive) | 93.1 µM (inactive) | > 100 µM (inactive) | > 100 µM (inactive) | > 100 µM (inactive) | > 100 µM (inactive) | > 100 µM (inactive) | > 100 µM (inactive) | 75.9 µM (inactive) | –
CN(C)C(=O)c1nnsc1NN=O | > 100 µM | > 100 µM (inactive) | > 100 µM (inactive) | > 100 µM (inactive) | – | > 100 µM (inactive) | > 100 µM (inactive) | > 100 µM (inactive) | > 100 µM (inactive) | > 100 µM (inactive) | > 100 µM (inactive) | > 100 µM (inactive) | > 100 µM (inactive) | > 100 µM (inactive) | > 100 µM (inactive) | > 100 µM (inactive) | > 100 µM (inactive) | > 100 µM (inactive) | –
Cc1cccc2c1Oc1cc(Cl)ccc1C2NC(=O)CCN1CCOCC1 (stereo unspecified) | > 100 µM | > 100 µM (inactive) | – | – | > 100 µM (inactive) | > 100 µM (inactive) | > 100 µM (inactive) | > 100 µM (inactive) | > 100 µM (inactive) | – | > 100 µM (inactive) | > 100 µM (inactive) | – | 18.1 µM (inactive) | 50.1 µM (inactive) | > 100 µM (inactive) | – | > 100 µM (inactive) | > 100 µM (inactive)
CC(=O)c1c2c(cc3c1CC1(C3)Cc3cc4c(c(C(C)=O)c3C1)CCCC4)CCCC2 | 51.5 µM | > 100 µM (inactive) | – | > 100 µM (inactive) | > 100 µM (inactive) | 57.7 µM (inactive) | – | 21.4 µM (inactive) | 20.1 µM (inactive) | > 100 µM (inactive) | – | – | > 100 µM (inactive) | 81.8 µM (inactive) | > 100 µM (inactive) | > 100 µM (inactive) | 19.7 µM (inactive) | > 100 µM (inactive) | –
Cc1nc(=O)[nH]c2c1C(=O)N(C(C)C)C(NC(C)C)S2 (stereo unspecified) | 93.8 µM | > 100 µM (inactive) | 55.1 µM (inactive) | – | > 100 µM (inactive) | > 100 µM (inactive) | – | 41.2 µM (inactive) | > 100 µM (inactive) | > 100 µM (inactive) | – | > 100 µM (inactive) | > 100 µM (inactive) | 97.7 µM (inactive) | 76 µM (inactive) | > 100 µM (inactive) | > 100 µM (inactive) | 83.6 µM (inactive) | –
O=C1CCC2(CC1CC(Sc1ccccc1)Sc1ccccc1)OCCO2 (stereo unspecified) | 37.1 µM | 42.7 µM (inactive) | 34.9 µM (inactive) | 23.2 µM (inactive) | 43.1 µM (inactive) | 36.7 µM (inactive) | 31.8 µM (inactive) | 25.2 µM (inactive) | 31.9 µM (inactive) | 58.7 µM (inactive) | 31.2 µM (inactive) | 88.5 µM (inactive) | 36.1 µM (inactive) | 28 µM (inactive) | 31.2 µM (inactive) | 38.2 µM (inactive) | 24.9 µM (inactive) | 37.4 µM (inactive) | –
CC1(C)N=C(/C(Cl)=[N+](/[O-])C(=O)c2ccc(F)cc2)C(C)(C)N1O | 13.4 µM | 17.1 µM (inactive) | 20.2 µM (inactive) | 26.6 µM (inactive) | 23.7 µM (inactive) | 21.4 µM (inactive) | 31.9 µM (inactive) | 17.5 µM (inactive) | 2.53 µM (inactive) | 22.7 µM (inactive) | 16.9 µM (inactive) | 29.6 µM (inactive) | 14.8 µM (inactive) | 24.5 µM (inactive) | 16.7 µM (inactive) | 45.8 µM (inactive) | 17.1 µM (inactive) | 11.7 µM (inactive) | –
CC(=O)OCC1OC(n2c(C)c(C)c(C)c(C#N)c2=S)C(OC(C)=O)C(OC(C)=O)C1OC(C)=O (stereo unspecified) | > 100 µM | > 100 µM (inactive) | > 100 µM (inactive) | – | 69.7 µM (inactive) | > 100 µM (inactive) | > 100 µM (inactive) | > 100 µM (inactive) | > 100 µM (inactive) | > 100 µM (inactive) | 95.5 µM (inactive) | > 100 µM (inactive) | 18.6 µM (inactive) | 34.1 µM (inactive) | > 100 µM (inactive) | > 100 µM (inactive) | 31.9 µM (inactive) | > 100 µM (inactive) | –
Clc1cccc(-c2sc(-c3ccsc3)cc2Cc2ccsc2)c1 | > 10 µM | > 10 µM (inactive) | > 10 µM (inactive) | – | – | > 10 µM (inactive) | – | > 10 µM (inactive) | > 10 µM (inactive) | – | > 10 µM (inactive) | > 10 µM (inactive) | > 10 µM (inactive) | > 10 µM (inactive) | > 10 µM (inactive) | > 10 µM (inactive) | – | > 10 µM (inactive) | –
CCOc1ccc(OCC(=O)O)c2c1CCCC2=O | > 100 µM | > 100 µM (inactive) | – | – | > 100 µM (inactive) | – | > 100 µM (inactive) | – | > 10 µM (inactive) | > 100 µM (inactive) | > 100 µM (inactive) | – | > 100 µM (inactive) | > 100 µM (inactive) | > 100 µM (inactive) | > 100 µM (inactive) | > 100 µM (inactive) | > 100 µM (inactive) | –
O=C(O)c1ccccc1C(=O)Nn1cnnc1 | > 100 µM | > 100 µM (inactive) | – | – | > 100 µM (inactive) | > 100 µM (inactive) | – | > 100 µM (inactive) | > 100 µM (inactive) | – | > 100 µM (inactive) | > 100 µM (inactive) | > 100 µM (inactive) | > 100 µM (inactive) | > 100 µM (inactive) | > 100 µM (inactive) | > 100 µM (inactive) | > 100 µM (inactive) | > 100 µM (inactive)
Cc1cc(S(=O)(=O)Nc2nc3ccsc3c(=O)n2N)c(S)cc1Cl | 50.7 µM | > 100 µM (inactive) | > 100 µM (inactive) | – | > 100 µM (inactive) | 83.8 µM (inactive) | 53.2 µM (inactive) | > 100 µM (inactive) | 86.9 µM (inactive) | 34.6 µM (inactive) | 42.2 µM (inactive) | > 100 µM (inactive) | – | – | 38.7 µM (inactive) | > 100 µM (inactive) | 76.2 µM (inactive) | 78.9 µM (inactive) | > 100 µM (inactive)
CNC(=O)C1CCCCNC(=O)CCC(NC(=O)OCc2ccccc2)C(=O)N1 (stereo not drawn) (Cbz-Glu-Lys-NHMe; lactam 1-2; configuration not given here) | > 100 µM | > 100 µM (inactive) | > 100 µM (inactive) | > 100 µM (inactive) | > 100 µM (inactive) | > 100 µM (inactive) | > 100 µM (inactive) | > 100 µM (inactive) | > 100 µM (inactive) | > 100 µM (inactive) | > 100 µM (inactive) | > 100 µM (inactive) | > 100 µM (inactive) | > 100 µM (inactive) | > 100 µM (inactive) | > 100 µM (inactive) | > 100 µM (inactive) | > 100 µM (inactive) | –
CC(C)[C@]12O[C@H]1[C@@H]1O[C@]13[C@]1(O[C@H]1C[C@H]1C4=C(CC[C@@]13C)C(=O)OC4)[C@@H]2O [TRIPTOLIDE] | 0.014 µM | 0.00322 µM (active) | – | 0.015 µM (active) | 0.00745 µM (active) | 0.00693 µM (active) | 0.00527 µM (active) | 0.0181 µM (active) | 0.017 µM (active) | 0.0216 µM (active) | 0.0249 µM (active) | 0.0244 µM (active) | – | 0.023 µM (active) | 0.00421 µM (active) | – | 0.00643 µM (active) | 0.00514 µM (active) | –
